What was measured:
lung cancer cells [1] = experiment: Local UV irradiation and immunofluorescence (6-4PP repair kinetics, XPA foci); type: cell-based, human; conditions: for XPA foci-positive cells, Pt-PreC vs nonPreC: FIG. 7B
Protocol: Results are presented as mean±SD from three independent experiments. Differences were considered significant at the value of P<0.01 (**). FIGS. 8A to 8D show the upregulation of SIRT1 expression during PreC. […] GAPDH was used as a loading control. […] Histone H3 was used to indicate chromatin-enriched fraction. […] 60 minutes after local UV irradiation the 6-4PP foci-positive cells were counted from randomly selected 1000 cells in each sample. The bars and error bars represent the mean±s.d from three independent experiments. Differences were considered significant at the value of P<0.001 (***). […] After incubation for the recovery times the cells were fixed in 4% paraformaldehyde for 15 min, followed by conventional immunofluorescence staining procedures. UV-induced lesions were counter-labeled with anti-6-4PP antibody, and XPA foci-positive cells were counted for quantitative analysis. The images were captured using Nikon imaging software NIS-Elements 4.0.

SIRT1 [2] = target: T1, SIRT1 (Homo sapiens, UniProt Q96EB6); experiment: XPA acetylation by immunoprecipitation of XPA and immunoblotting with anti-acetyl-lysine antibody; type: cell-based; conditions: UV-PreC cells pretreated with EX527 for 5 h before cisplatin treatment; FIG. 8B
T1 sequence (Q96EB6 1-747): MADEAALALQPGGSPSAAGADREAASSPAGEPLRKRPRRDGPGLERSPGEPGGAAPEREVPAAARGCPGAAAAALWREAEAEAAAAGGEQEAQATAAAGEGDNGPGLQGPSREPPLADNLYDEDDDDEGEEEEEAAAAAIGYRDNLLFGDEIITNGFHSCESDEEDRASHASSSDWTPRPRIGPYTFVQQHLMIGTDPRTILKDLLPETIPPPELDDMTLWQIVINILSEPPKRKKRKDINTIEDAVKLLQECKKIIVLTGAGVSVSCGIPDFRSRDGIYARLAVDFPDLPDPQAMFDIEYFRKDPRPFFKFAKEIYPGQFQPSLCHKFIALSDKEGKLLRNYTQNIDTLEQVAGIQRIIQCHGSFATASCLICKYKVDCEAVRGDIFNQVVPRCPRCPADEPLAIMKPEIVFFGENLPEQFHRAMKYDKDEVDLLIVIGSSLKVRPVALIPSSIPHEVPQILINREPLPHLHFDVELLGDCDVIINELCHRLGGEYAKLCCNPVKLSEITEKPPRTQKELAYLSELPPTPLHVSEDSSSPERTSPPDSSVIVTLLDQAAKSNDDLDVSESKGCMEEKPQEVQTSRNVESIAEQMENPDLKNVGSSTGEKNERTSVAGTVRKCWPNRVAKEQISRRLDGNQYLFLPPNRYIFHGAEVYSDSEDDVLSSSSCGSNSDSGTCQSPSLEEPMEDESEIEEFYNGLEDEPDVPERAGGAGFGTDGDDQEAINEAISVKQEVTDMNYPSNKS
Protocol: PreC cells were pretreated with EX527 for 5 h before cisplatin treatment.
Antibodies used in this study include those against XPA (Kamiya), XPB-XPD (Santa Cruz Biotechnology, Santa Cruz, Calif., USA), XPE, p-p53, p-CHK1, GAPDH, SIRT1, acetyl-lysine (Cell Signaling Technology), XPF, and XPG (both Abcam, Cambridge, UK). For immunoprecipitation of XPA, 1 mg of whole-cell lysate was incubated with 1 μg of anti-XPA conjugated to Protein A/G-agarose beads (Sigma, St. Louis, Mo., USA) for 12 h at 4° C. with rotation. After washing with lysis buffer, proteins were eluted from the beads by boiling in SDS sample buffer and resolved on 10% SDS-polyacrylamide gels. For detection of XPA acetylation, anti-acetyl-lysine was employed.

SIRT1 [3] = target: T1, SIRT1; experiment: XPA loading to chromatin (chromatin-enriched fraction, immunoblotting); conditions: EX527 pretreatment before cisplatin following UV-PreC; FIG. 8B
lung cancer cells [4] = experiment: Immunoslot blotting of Pt-GpG adduct removal after cisplatin preconditioning; type: cell-based, human
Protocol: FIGS. 4A and 4B show the enhanced Pt-GpG diadduct removal by Pt-PreC. […] The bars and error bars represent the mean±s.d from three independent experiments. A549 and H460 cells (American Type Culture Collection, Manassas, Va., USA) were cultured in Dulbecco's modified Eagle medium supplemented with 10% fetal bovine serum and 1% penicillin-streptomycin. 100% confluent cells were kept for additional four days to completely block cell proliferation and then exposed to the UV light using a germicidal lamp (for immunoslot blotting) or UV crosslinker (for immunofluorescence) emitting primarily UV-C light. A UV-C sensor (UV Products, Upland, Calif., USA) was used to calibrate the fluence rate of the incident light. For immunofluorescence staining, cells were grown on a glass coverslip coated with poly-D-lysine and laminin (BD Biosciences, San Jose, Calif., USA). For assessment of cell viability, CellTiter-Fluor Cell Viability Assay kit (Promega, Madison, Wis., USA) was used as indicated in manufacturer's protocol. Fluorescence plate reader (BIORAD, Hercules, Calif., USA) was used to measure a constitutive protease activity within live cells using a fluorogenic and cell permeable peptide substrate. […]

lung cancer cells [5] = experiment: Immunoslot blotting of residual UV-induced CPDs after cisplatin preconditioning; type: cell-based, human; conditions: preconditioning with 5 μM cisplatin; 5 or 10 J/m^2 UV; FIGS. 3B and 3C
Protocol: FIGS. 3A to 3C show the enhanced UV-induced CPD repair activity following Pt-PreC. […] After immunoslot blotting the membrane was counterstained with SYBR-Gold for a loading control of genomic DNA. 5 J/m^2 (FIG. 3B) or 10 J/m^2 (FIG. 3C) of UV-induced CPD repair kinetics were measured from cells conditioned with nonPreC or Pt-PreC.
A549 and H460 cells (American Type Culture Collection, Manassas, Va., USA) were cultured in Dulbecco's modified Eagle medium supplemented with 10% fetal bovine serum and 1% penicillin-streptomycin. 100% confluent cells were kept for additional four days to completely block cell proliferation and then exposed to the UV light using a germicidal lamp (for immunoslot blotting) or UV crosslinker (for immunofluorescence) emitting primarily UV-C light. A UV-C sensor (UV Products, Upland, Calif., USA) was used to calibrate the fluence rate of the incident light. For immunofluorescence staining, cells were grown on a glass coverslip coated with poly-D-lysine and laminin (BD Biosciences, San Jose, Calif., USA). For assessment of cell viability, CellTiter-Fluor Cell Viability Assay kit (Promega, Madison, Wis., USA) was used as indicated in manufacturer's protocol. Fluorescence plate reader (BIORAD, Hercules, Calif., USA) was used to measure a constitutive protease activity within live cells using a fluorogenic and cell permeable peptide substrate. […]

[6] = system: 6-4PP-containing DNA substrate; experiment: Dual-incision NER activity assay with lysate of Pt-PreC cells; type: cell-based, human; conditions: FIG. 5
Protocol: Dual-incision NER activity assay was performed using isotope-labeled and 6-4PP-containing linear substrate DNA and cell lysates obtained from nonPreC and Pt-PreC cells at the indicated times after PreC. Amount of excision product was used as a measure of the NER capacity of the lysate. Results are presented as mean±SD from three independent experiments. Differences were considered significant at the values of P<0.01 (**) and P<0.001 (***). Assay of NER activity in the cell lysate toward 6-4PP-containing DNA substrate was carried out. Briefly, 10 fmol of 140-bp duplex with a 6-4PP in the center and ^32P-label at the 5th phosphodiester bond 5′ to the site of the lesion was incubated with 70 μg of lysate in 25 μL of excision buffer at 30° C. for 1 h. The amount of excision product was used as a measure of NER capacity in the lysate. The 6-4PP-containing linear duplex substrate DNA and NER-competent cell lysate were prepared.

Structure (SMILES) | effect on PreC-induced repair capacity (6-4PP repair kinetics) (lung cancer cells [1]; 1 μM EX-527 for 5 h before local UV irradiation, 6-4PP foci-positive cells counted 60 min after UV, FIG. 8C) | effect on the UV-PreC-induced decrease in acetylation level of XPA (SIRT1 [2]) | effect on UV-PreC-induced enhancement of XPA chromatin loading (SIRT1 [3]) | 6-4PP removal, Pt-PreC vs nonPreC control (lung cancer cells [1]; 200 J/m^2 local UV irradiation, FIG. 7A) | XPA foci-positive cells, Pt-PreC vs nonPreC (lung cancer cells [1]; 60 min after UV exposure) | XPA foci-positive cells, Pt-PreC vs nonPreC (lung cancer cells [1]; within 30 min of recovery time) | remaining Pt-GpG adduct after Pt-PreC (lung cancer cells [4]; 48 h after Pt-PreC with 5 μM of cisplatin, FIG. 4A) | Pt-GpG repair kinetics upon following cisplatin treatment, Pt-PreC vs nonPreC (lung cancer cells [4]; Pt-PreC 5 μM, then 10 μM cisplatin, FIG. 4B) | kinetics of CPD repair after the same dose of UV, preconditioned vs nonPreC (lung cancer cells [5]) | time after PreC at which NER activity peaked [6] | time after PreC at which NER activity started to increase [6] | time after PreC at which enhancement of NER capacity was no longer detected [6]
NC(=O)C1CCCc2c1[nH]c1ccc(Cl)cc21 (stereo not drawn) [EX527, 6-chloro-2,3,4,9-tetrahydro-1H-carbazole-1-carboxamide] | compromised by SIRT1 inhibition | immediately reversed | reduced in the presence of EX527 |  |  |  |  |  |  |  |  | 
N.N.[Cl][Pt][Cl] [cisplatin] |  |  |  | accelerated the 6-4PP removal | approximately 3 times less | no difference | no remaining Pt-GpG adduct | much faster | much faster | 48 h | 12 h | 72 h

From patent publication US20190079075A1, “PHARMECEUTICAL COMPOSITION FOR LUNG CANCER TREATMENT AND METHODS FOR PROVIDING INFORMATION AND SCREENING” (DONG-A UNIVERSITY RESEARCH FOUNDATION FOR INDUSTRY-ACADEMY …, priority 2015, published 2019)
